Reference: BigSolDB 2.1

O=C(O)c1cccnc1
solubility (mole fraction)
Conditions	in DMSO	in acetone	in ethanol	in ethyl acetate	in isopropanol	in methanol	in n-butanol	in n-propanol	in water
283.15 K	0.0437	0.00062	0.00202	0.00033	0.00177	0.00238	0.0014	0.00179	0.00165
293.15 K	0.0576	0.00104	0.00312	0.00054	0.00276	0.00382	0.00231	0.00285	0.00215
303.15 K	0.0722	0.00166	0.00468	0.00093	0.00418	0.00587	0.00351	0.00435	0.00279
313.15 K	0.0889	0.00262	0.00683	0.00149	0.00617	0.00889	0.00554	0.00641	0.00363
323.15 K	0.107	0.00408	0.00978	0.00246	0.00891	0.0129	0.00855	0.00923	0.00458
333.15 K	0.127	–	0.0136	0.00401	0.0125	–	0.0123	0.0131	0.00576
343.15 K	0.15	–	0.0188	0.00603	0.0172	–	0.0178	0.0186	0.00704
353.15 K	–	–	–	–	–	–	0.0253	–	0.00872
363.15 K	–	–	–	–	–	–	–	–	0.0107
